# In patent US6521635B1, “Inhibition of MXR transport by acridine derivatives” (priority 2000, dated 2003):
# Columns and labels:
# [1] = tested on: S1 parental cells (low endogenous level of Pgp); assay: Rhodamine efflux assay (flow cytometry); type: cell-based, human
# Description: (§1) The rhodamine and calcein efflux assays were performed as previously described with minor modifications (Lee et al. (1994) Mol. Pharmacol. 46: 627-638; Versantvoort et al. (1995) Int. J. Cancer 63: 855-862.) Suspensions of logarithmic phase cells were obtained from tissue culture flasks by trypsinization and transferred into round-bottom 96-well plates. […] After the efflux period, the cells were washed with DPBS and placed on ice. A FACSort flow cytometer (Becton Dickinson, San Jose, Calif.) with a 488-nm argon laser was used to analyze the samples. Rhodamine 123 or calcein fluorescence was collected after a 530 nm bandpass filter. A minimum of 10,000 events was collected per sample and the samples were gated on forward scatter versus side scatter to exclude clumps and debris; dead cells were excluded based on propidium iodide staining.
# (§2) To provide confirmation, rhodamine efflux assays were performed. […] After an accumulation and efflux period, rhodamine fluorescence was quantitated by flow cytometric analysis. The results are depicted in FIG. 2. […] PSC 833, a cyclosporin-D analog, was used as a positive control for Pgp antagonism.
# [2] = tested on: MRP-overexpressing MCF-7/VP cells; assay: In vitro cytotoxicity assay (sulforhodamine B staining); type: cell-based, human
# Description: Reversal of resistance was determined in cytotoxicity assays using the sulforhodamine staining (Skehan et al. (1990) J. Natl. Cancer Inst. 82: 1107-1112). Briefly, cells were harvested and seeded at a density of 2000 cells/well for the colon cancer lines and 4000 cells/well for the breast cancer cell lines in flat-bottom 96-well plates. The cells were incubated for 24 h at 37° C. to allow attachment prior to addition of the drugs. Mitoxantrone and topotecan at various concentrations were added to the cells with or without the reversal agent and were incubated at 37° C. in a fully humidified atmosphere of 5% CO2 for 96 h. Each concentration was tested in triplicate and the controls were done in replicates of eight.
# After incubation, the cells were fixed in TCA and stained with sulforhodamine B (SRB) solution (0.4% wt/vol in 1% acetic acid) (Sigma Chemical, St Louis, Mo.). Optical densities were read on a Bio-Rad plate reader (Hercules, Calif.) at an absorbance of 540 nm.
# MCF-7 parental cells [3] = assay: Rhodamine efflux assay (flow cytometry); type: cell-based, human
# Description: (§3) To provide confirmation, rhodamine efflux assays were performed. […] The results are depicted in FIG. 2.
# [4] = tested on: S1-B1-20 Pgp-overexpressing cells; assay: In vitro cytotoxicity assay (sulforhodamine B staining); type: cell-based, human; conditions: GF120918 at 1 μM, Pgp-expressing S1-B1-20 cells
# Description: (§4) Reversal of resistance was determined in cytotoxicity assays using the sulforhodamine staining (Skehan et al. (1990) J. Natl. […] Briefly, cells were harvested and seeded at a density of 2000 cells/well for the colon cancer lines and 4000 cells/well for the breast cancer cell lines in flat-bottom 96-well plates. The cells were incubated for 24 h at 37° C. to allow attachment prior to addition of the drugs. […] Each concentration was tested in triplicate and the controls were done in replicates of eight. Results are representative of from three to six experiments. […] After incubation, the cells were fixed in TCA and stained with sulforhodamine B (SRB) solution (0.4% wt/vol in 1% acetic acid) (Sigma Chemical, St Louis, Mo.). Optical densities were read on a Bio-Rad plate reader (Hercules, Calif.) at an absorbance of 540 nm.
# MCF-7 parental cells [5] = assay: as above; type: cell-based, human; conditions: Homo sapiens, MCF7, read-out: IC50 for GF120918 alone; MCF-7 parental cells
# Description: as §4
# S1 parental cells = assay: as above; type: cell-based, human; conditions: Homo sapiens, read-out: IC50 for GF120918 alone; S1 parental cells
# Description: as §4
# [6] = as above; type: cell-based, human; conditions: human
# Description: as §4
# MXR (S1-M1-80 cells) = target: T1, MXR (S1-M1-80 cells) (Homo sapiens, UniProt Q9UNQ0, R482G); assay: Rhodamine efflux assay (flow cytometry); type: cell-based; conditions: S1-M1-80 cells
# T1 construct: express high levels of a mitoxantrone transporter (Miyake et al. (1999) Cancer Res.59: 8-13); endogenous in cells; host or cells: S1-M1-80 (mitoxantrone-selected subline of S1 colon carcinoma cells)
# T1 sequence (Q9UNQ0 1-655 R482G): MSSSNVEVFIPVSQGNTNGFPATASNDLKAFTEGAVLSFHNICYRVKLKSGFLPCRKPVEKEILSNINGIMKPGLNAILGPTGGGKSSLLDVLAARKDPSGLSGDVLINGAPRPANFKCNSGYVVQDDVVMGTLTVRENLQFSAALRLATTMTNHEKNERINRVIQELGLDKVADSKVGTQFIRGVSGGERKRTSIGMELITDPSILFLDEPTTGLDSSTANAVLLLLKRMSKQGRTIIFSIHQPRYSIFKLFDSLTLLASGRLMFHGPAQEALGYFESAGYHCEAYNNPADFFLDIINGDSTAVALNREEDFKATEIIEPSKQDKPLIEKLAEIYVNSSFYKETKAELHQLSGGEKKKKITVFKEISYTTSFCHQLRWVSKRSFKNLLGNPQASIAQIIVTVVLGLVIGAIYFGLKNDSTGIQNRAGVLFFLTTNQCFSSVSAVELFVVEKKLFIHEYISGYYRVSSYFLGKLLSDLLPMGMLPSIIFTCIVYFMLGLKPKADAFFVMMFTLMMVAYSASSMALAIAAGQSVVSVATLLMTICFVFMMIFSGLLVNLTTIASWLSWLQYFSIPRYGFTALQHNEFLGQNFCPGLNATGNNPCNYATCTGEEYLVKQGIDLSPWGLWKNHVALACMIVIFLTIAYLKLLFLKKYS
# Description: as §3
# MRP (MCF-7/VP cells) = target: T2, MRP (MCF-7/VP cells) (Homo sapiens, UniProt P33527); assay: Calcein efflux assay (FACS); type: cell-based; conditions: at 25 μM, MCF-7/VP cells (data not shown)
# T2 construct: Calcein is readily effluxed in the MRP-overexpressing MCF-7/VP cells; endogenous in cells; host or cells: MCF-7/VP (maintained in 4 uM VP-16; provided by Dr. Ken Cowan)
# T2 sequence (P33527 whole entry): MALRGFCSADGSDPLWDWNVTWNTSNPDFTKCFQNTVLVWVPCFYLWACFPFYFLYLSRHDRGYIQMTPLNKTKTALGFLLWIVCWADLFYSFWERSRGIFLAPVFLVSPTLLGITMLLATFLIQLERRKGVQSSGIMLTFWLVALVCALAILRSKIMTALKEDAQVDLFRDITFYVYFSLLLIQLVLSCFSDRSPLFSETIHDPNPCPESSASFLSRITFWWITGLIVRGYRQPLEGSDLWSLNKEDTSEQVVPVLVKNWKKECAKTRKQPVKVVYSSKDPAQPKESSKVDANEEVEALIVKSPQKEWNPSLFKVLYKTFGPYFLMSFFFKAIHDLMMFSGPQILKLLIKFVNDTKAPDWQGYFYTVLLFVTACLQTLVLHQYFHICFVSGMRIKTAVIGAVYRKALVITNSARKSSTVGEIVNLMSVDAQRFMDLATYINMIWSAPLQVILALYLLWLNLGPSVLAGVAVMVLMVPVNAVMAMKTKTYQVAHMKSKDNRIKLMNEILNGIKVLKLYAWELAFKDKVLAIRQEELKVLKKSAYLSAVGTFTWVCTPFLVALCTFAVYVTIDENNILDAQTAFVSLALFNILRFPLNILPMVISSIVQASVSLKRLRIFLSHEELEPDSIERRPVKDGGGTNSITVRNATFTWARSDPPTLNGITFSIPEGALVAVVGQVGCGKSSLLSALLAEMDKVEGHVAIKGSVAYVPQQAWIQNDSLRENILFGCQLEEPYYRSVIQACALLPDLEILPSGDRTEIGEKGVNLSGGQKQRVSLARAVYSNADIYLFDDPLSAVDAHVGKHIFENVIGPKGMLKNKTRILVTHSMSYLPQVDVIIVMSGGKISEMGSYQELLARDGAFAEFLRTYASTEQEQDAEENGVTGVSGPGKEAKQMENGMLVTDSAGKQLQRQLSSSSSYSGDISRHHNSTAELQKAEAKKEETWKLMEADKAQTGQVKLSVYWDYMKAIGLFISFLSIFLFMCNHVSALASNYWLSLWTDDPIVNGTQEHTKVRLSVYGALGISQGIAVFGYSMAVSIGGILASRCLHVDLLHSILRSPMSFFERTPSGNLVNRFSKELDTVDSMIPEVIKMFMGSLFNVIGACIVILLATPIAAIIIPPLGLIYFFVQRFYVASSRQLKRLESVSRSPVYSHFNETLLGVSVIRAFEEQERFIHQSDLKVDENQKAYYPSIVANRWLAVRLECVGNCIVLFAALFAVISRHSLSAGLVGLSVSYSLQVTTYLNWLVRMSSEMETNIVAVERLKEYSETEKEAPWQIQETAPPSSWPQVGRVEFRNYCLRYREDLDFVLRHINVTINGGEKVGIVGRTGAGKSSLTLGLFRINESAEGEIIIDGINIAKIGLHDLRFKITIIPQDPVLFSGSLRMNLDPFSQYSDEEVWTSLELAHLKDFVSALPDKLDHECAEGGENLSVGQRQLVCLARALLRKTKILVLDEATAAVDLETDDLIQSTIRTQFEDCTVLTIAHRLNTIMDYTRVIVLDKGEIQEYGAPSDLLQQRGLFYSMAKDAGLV
# Description: as §1
# Calcein AM can be used to detect both Pgp and MRP-mediated efflux. Calcein permeates the cell in neutral form as an acetomethoxyester, calcein AM. Esterase activity cleaves the AM group leaving calcein as a fluorescent organic anion.
# [7] = target: Pgp (Pgp-overexpressing S1-B1-20 cells) (Homo sapiens, UniProt P08183)
# Pgp (Pgp-overexpressing S1-B1-20 cells), sequence (P08183 whole entry): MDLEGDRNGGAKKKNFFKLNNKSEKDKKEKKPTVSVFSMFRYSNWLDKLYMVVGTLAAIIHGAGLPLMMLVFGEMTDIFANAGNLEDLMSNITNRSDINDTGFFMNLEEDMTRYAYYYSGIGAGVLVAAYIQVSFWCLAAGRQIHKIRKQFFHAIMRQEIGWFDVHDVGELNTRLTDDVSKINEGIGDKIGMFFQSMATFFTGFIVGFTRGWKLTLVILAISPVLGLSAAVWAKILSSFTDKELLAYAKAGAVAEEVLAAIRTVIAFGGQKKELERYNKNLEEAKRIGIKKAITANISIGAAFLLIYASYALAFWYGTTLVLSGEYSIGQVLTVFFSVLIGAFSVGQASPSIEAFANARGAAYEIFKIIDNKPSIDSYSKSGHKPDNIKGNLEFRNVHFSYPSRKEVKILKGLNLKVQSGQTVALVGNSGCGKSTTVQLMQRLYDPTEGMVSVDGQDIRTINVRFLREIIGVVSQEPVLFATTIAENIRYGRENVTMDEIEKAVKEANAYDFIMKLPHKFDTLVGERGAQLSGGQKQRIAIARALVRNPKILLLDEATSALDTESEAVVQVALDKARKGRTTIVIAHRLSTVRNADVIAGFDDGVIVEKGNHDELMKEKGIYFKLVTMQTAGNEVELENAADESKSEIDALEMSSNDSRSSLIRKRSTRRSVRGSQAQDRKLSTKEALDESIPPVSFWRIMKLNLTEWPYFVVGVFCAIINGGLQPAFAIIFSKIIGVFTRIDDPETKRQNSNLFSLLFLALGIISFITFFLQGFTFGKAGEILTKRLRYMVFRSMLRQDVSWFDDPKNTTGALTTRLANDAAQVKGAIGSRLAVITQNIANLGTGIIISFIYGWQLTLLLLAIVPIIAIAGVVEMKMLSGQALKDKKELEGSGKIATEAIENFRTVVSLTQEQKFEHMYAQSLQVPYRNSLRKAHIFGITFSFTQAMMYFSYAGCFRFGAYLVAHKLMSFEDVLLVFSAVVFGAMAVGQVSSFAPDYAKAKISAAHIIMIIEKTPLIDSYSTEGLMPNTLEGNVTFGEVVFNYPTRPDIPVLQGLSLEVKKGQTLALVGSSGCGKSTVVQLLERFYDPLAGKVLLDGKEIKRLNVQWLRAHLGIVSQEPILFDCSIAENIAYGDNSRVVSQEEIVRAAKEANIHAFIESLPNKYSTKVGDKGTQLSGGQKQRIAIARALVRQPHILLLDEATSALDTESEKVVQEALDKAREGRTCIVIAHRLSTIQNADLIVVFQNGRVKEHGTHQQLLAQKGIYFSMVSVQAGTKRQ
# Description: as §1, §2
# [8] = tested on: S1-M1-80 cells expressing MXR; assay: In vitro cytotoxicity assay (sulforhodamine B staining); type: cell-based, human; design: sensitization to topotecan: dose or concentration left out as unconfirmed
# Description: as §4
smiles,measurement,setting,value
COc1cc2c(cc1OC)CN(CCc1ccc(NC(=O)c3cccc4c(=O)c5cccc(OC)c5[nH]c34)cc1)CC2 [GF120918],effect on rhodamine accumulation and efflux,[1],small increase in rhodamine accumulation and a decrease in efflux
same,IC50,"[2]; Homo sapiens, MCF7-VP, read-out: IC50 for GF120918 alone, MCF-7/VP cells",7.5 µM
same,reversing MRP-mediated resistance,"[2]; cytotoxicity reversal studies with etoposide, MRP-overexpressing MCF-7 VP-16 cells (data not shown)",ineffective
same,effect on rhodamine efflux,MCF-7 parental cells [3],No effect
same,sensitization to mitoxantrone,[4],31 fold
same,IC50,MCF-7 parental cells [5],40 µM
same,IC50,S1 parental cells,15.2 µM
same,IC50 at 96 h,[6],3.6 µM
same,concentration at which an effect on rhodamine efflux was observed,MXR (S1-M1-80 cells),1 µM
same,reversal of MRP-mediated calcein efflux,MRP (MCF-7/VP cells),only slight reversal
same,concentration giving complete inhibition of rhodamine efflux,[7],0.25 µM
same,lowest concentrations at which rhodamine 123 efflux was decreased,[7],25 to 50 nM
same,sensitization to mitoxantrone,"[8]; GF120918 at 1 μM, S1-M1-80 cells expressing MXR",1850 fold
same,IC50,"[8]; Homo sapiens, S1-M1-80, read-out: IC50 for GF120918 alone, S1-M1-80 cells",2.5 µM
same,sensitization to topotecan,[8]; S1-M1-80 cells,23 fold
